From patent US8415469B2, “Compounds and methods for kinase modulation, and indications therefor” (Plexxikon Inc., priority 2005, dated 2013)

Legend:
Type in all cases: biochemical
Kit = biological target: T1, Kit (Homo sapiens, UniProt P10721); test: AlphaScreen kinase assay, Kit; conditions: read-out: IC50, activity toward kinase Kit
T1 construct: P1332.N6 BI PTP KIT M552-K948-X COD; His6 (N); made in house; host or cells: E. coli (PTP1B co-expressed)

Jnk1 = biological target: T2, Jnk1 (Homo sapiens, UniProt P45983); test: AlphaScreen kinase assay, Jnk1; conditions: read-out: IC50, activity toward kinase Jnk1
T2 construct: purchased Upstate Biotechnology
T2 sequence (P45983 whole entry): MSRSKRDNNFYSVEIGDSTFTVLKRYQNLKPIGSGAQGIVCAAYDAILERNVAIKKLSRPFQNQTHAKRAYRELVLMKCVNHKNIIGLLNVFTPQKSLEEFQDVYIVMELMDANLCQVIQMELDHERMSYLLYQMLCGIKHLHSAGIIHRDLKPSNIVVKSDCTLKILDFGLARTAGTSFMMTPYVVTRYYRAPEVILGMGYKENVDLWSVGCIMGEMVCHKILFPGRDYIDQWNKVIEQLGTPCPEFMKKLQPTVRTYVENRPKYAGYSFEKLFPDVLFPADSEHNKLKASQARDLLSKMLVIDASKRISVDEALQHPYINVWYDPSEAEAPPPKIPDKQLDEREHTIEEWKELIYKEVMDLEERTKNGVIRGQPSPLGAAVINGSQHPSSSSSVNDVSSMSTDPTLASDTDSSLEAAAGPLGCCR

Fak = biological target: T3, Fak (Homo sapiens, UniProt Q05397); test: AlphaScreen kinase assay, Fak; conditions: read-out: IC50, activity toward kinase Fak
T3 construct: P1358.pFastBacHtb FAK S411-Q686-X; His6 with pFastBacHTb leader (TEV site) (N); made in house; host or cells: Sf9 (baculovirus)
T3 sequence (Q05397 411-686): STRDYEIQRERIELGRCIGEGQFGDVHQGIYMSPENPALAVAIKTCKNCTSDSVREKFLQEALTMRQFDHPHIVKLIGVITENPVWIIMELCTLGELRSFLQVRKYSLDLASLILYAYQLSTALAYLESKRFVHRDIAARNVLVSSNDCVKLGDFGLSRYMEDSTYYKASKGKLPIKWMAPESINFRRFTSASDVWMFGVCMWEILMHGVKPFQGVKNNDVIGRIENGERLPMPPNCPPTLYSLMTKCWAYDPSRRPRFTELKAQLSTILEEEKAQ

Src = biological target: T4, Src (Homo sapiens, UniProt P12931); test: AlphaScreen kinase assay, Src; conditions: read-out: IC50, activity toward kinase Src
T4 construct: P1144. pET-N6 BI-PTP SRC V86-L536-X; made in house
T4 sequence (P12931 with tags, fused parts or gaps): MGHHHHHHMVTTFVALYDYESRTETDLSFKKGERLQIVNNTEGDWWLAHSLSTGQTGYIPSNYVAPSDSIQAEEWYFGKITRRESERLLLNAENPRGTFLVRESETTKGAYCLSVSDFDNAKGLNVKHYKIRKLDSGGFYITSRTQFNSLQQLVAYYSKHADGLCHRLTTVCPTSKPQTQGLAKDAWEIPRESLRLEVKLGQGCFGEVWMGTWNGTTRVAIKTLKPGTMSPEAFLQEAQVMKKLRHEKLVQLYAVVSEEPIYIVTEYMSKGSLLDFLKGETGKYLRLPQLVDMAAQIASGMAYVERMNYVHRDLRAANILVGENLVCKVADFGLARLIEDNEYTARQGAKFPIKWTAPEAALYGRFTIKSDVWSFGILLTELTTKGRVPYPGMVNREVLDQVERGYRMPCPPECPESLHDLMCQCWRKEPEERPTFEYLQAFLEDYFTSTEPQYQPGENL

Flt1 = biological target: T5, Flt1 (Homo sapiens, UniProt P17948); test: AlphaScreen kinase assay, Flt1; conditions: read-out: IC50, activity toward kinase Flt1
T5 construct: P1826.pETN6 BI-PTP FLT1 M799-D1165-X WT; His6 (N); made in house; host or cells: E. coli (PTP1B co-expressed)
T5 sequence (P17948 with tags, fused parts or gaps): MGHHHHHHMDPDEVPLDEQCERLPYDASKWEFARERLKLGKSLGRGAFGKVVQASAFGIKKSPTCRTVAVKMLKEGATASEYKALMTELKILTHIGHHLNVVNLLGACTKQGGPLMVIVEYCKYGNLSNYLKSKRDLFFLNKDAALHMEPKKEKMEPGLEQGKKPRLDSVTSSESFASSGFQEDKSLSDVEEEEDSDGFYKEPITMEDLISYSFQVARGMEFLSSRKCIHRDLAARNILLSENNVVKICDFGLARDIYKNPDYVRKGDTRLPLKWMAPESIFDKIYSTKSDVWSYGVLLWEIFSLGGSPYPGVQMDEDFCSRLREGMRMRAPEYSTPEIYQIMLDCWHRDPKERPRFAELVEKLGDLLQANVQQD

B-Raf V600E = biological target: T6, B-Raf V600E (Homo sapiens, UniProt P15056, V600E); test: AlphaScreen kinase assay, B-Raf V600E; conditions: read-out: IC50, activity toward kinase B-Raf V600E
T6 construct: P4254. pFastBacBD-CDC37 BRAF D437-K722-X, V600E; His6 with pFastBac HT leader (TEV site) (N); made in house; host or cells: Sf9 (baculovirus; chaperone CDC37 co-expressed)
T6 sequence (P15056 with tags, fused parts or gaps V600E): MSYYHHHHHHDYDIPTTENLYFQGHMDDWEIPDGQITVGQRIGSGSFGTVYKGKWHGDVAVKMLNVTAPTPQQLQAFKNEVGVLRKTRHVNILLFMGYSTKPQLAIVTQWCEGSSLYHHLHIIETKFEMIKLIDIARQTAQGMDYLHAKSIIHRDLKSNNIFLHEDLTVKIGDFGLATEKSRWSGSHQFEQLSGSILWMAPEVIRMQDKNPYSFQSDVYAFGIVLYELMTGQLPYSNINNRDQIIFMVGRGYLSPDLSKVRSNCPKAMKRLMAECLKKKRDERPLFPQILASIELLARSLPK

FGFR1 = biological target: T7, FGFR1 (Homo sapiens, UniProt P11362, C488A/C584S); test: AlphaScreen kinase assay, FGFR1; conditions: read-out: IC50, activity toward kinase FGFR
T7 construct: P1351.pET N6 BI-PTP FGFR A458-E765-X C488A, C584S; made in house; host or cells: E. coli (PTP1B co-expressed)
T7 sequence (P11362 458-765 C488A/C584S): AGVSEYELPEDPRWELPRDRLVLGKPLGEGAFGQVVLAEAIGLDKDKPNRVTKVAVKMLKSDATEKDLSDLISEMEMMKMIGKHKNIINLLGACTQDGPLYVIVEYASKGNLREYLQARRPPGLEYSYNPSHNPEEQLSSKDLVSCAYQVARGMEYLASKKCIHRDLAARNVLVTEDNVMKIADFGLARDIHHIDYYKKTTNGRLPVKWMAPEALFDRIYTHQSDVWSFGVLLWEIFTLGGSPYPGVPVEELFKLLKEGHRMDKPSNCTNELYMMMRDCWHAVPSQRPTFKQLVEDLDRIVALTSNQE

B-Raf = biological target: T8, B-Raf (Homo sapiens, UniProt P15056); test: AlphaScreen kinase assay, B-Raf; conditions: read-out: IC50, activity toward kinase B-Raf
T8 construct: purchased Upstate Biotechnology
T8 sequence (P15056 whole entry): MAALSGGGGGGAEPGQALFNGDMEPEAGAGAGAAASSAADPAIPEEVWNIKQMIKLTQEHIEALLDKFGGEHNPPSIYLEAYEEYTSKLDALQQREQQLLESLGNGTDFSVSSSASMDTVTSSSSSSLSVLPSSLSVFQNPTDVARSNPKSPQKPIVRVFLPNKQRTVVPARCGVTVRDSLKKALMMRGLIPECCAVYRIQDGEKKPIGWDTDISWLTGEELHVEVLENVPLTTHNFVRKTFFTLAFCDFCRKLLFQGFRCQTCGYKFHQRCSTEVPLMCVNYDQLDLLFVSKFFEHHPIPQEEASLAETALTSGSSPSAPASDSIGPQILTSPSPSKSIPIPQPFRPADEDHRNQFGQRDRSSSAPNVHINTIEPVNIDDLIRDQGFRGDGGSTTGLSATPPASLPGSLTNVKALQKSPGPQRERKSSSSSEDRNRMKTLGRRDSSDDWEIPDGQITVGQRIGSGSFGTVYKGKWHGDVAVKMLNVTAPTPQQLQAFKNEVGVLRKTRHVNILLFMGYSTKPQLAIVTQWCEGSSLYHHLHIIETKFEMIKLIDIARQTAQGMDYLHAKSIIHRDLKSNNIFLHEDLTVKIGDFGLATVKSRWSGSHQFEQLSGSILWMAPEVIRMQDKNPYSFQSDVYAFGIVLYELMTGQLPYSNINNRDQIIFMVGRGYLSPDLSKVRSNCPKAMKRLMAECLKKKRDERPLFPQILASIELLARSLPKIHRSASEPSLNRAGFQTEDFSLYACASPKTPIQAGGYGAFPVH

c-Raf-1 = biological target: T9, c-Raf-1 (Homo sapiens, UniProt P04049); test: AlphaScreen kinase assay, c-Raf-1; conditions: read-out: IC50, activity toward kinase c-Raf-1
T9 construct: purchased Upstate Biotechnology
T9 sequence (P04049 whole entry): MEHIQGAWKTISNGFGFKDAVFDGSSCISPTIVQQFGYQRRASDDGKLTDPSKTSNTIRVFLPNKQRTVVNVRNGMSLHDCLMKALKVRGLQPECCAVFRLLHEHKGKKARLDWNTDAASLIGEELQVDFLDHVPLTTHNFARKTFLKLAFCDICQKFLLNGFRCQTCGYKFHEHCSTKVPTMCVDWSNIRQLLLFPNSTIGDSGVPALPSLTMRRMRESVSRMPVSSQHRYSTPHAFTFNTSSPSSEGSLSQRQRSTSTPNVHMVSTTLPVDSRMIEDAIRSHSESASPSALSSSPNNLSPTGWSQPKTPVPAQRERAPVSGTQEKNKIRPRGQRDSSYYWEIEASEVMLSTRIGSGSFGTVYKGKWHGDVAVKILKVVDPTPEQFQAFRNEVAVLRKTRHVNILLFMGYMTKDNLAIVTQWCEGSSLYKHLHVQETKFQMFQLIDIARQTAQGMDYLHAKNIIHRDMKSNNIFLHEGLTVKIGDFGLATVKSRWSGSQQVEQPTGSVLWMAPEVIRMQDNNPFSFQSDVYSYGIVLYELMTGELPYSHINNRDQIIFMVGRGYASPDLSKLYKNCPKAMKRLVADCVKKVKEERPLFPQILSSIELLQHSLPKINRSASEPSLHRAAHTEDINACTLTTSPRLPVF

Fms = biological target: T10, Fms (Homo sapiens, UniProt P07333); test: AlphaScreen kinase assay, Fms; conditions: read-out: IC50, activity toward kinase Fms
T10 construct: purchased Upstate Biotechnology
T10 sequence (P07333 20-972): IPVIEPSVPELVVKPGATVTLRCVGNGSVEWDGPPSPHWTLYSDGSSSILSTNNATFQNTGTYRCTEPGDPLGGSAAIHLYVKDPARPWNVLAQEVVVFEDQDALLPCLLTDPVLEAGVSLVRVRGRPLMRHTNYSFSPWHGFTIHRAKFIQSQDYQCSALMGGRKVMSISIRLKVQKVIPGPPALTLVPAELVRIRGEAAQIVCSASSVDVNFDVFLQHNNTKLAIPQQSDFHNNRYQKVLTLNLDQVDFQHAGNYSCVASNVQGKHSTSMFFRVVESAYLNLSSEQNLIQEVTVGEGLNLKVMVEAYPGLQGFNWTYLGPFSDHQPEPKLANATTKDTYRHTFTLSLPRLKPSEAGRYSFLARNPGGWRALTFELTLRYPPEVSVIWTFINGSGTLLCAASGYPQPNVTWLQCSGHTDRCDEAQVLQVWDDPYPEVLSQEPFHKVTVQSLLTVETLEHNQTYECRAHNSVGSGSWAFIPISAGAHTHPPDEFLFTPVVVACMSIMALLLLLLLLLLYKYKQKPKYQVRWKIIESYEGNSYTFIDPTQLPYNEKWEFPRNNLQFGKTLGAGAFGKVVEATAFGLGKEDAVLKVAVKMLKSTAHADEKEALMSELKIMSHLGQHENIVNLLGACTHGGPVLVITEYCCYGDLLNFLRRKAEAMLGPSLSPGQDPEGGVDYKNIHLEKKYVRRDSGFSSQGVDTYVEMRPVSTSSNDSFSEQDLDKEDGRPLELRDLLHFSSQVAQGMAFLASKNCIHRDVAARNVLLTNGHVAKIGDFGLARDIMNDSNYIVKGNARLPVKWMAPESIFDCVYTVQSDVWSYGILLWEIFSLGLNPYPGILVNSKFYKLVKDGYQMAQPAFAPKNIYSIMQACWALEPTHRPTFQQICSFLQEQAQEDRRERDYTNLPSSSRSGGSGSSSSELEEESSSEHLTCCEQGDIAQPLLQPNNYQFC

Jnk3 = biological target: T11, Jnk3 (Homo sapiens, UniProt P53779); test: AlphaScreen kinase assay, Jnk3; conditions: read-out: IC50, activity toward kinase Jnk3
T11 construct: purchased Upstate Biotechnology

T1 sequence (P10721 with tags, fused parts or gaps): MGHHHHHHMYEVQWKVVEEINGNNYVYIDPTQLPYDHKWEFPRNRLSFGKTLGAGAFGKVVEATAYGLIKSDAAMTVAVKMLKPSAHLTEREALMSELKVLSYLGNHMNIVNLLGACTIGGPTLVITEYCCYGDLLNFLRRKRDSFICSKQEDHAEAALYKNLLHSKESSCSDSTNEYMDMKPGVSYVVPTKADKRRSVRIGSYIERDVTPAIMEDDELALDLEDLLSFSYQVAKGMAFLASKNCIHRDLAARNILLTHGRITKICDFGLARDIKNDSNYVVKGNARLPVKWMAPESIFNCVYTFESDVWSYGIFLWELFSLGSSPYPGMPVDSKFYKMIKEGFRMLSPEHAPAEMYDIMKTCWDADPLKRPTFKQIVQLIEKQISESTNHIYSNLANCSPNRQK

Compound	IC50 (Kit) [µM]	IC50 (Jnk1) [µM]	IC50 (Fak) [µM]	IC50 (Src) [µM]	IC50 (Flt1) [µM]	IC50 (B-Raf V600E) [µM]	IC50 (FGFR1) [µM]	IC50 (B-Raf) [µM]	IC50 (c-Raf-1) [µM]	IC50 (Fms) [µM]	IC50 (Jnk3) [µM]
Fc1cccc(F)c1Cc1c[nH]c2ncc(-c3cccnc3)cc12 [Compound P-1477, 3-(2,6-Difluoro-benzyl)-5-pyridin-3-yl-1H-pyrrolo[2,3-b]pyridine]	–	–	≤ 10	≤ 10	–	≤ 10	≤ 10	≤ 10	–	≤ 10	≤ 10
NC(=O)c1cccc(-c2cnc3[nH]cc(C(=O)c4ccccc4O)c3c2)c1 [Compound P-1384]	≤ 10	≤ 10	≤ 10	≤ 10	–	≤ 10	≤ 10	≤ 10	–	≤ 10	≤ 10
COc1ccc(F)c(C(=O)c2c[nH]c3ncc(-c4cccc(NS(C)(=O)=O)c4)cc23)c1F [Compound P-1391, N-{3-[3-(2,6-Difluoro-3-methoxy-benzoyl)-1H-pyrrolo[2,3-b]pyridin-5-yl]-phenyl}-methanesulfonamide]	≤ 10	–	≤ 10	≤ 10	–	≤ 10	≤ 10	≤ 10	≤ 10	≤ 10	–
O=C(Nc1ccc(F)c(C(=O)c2c[nH]c3ncc(Br)cc23)c1F)OCc1ccccc1 [Compound P-1457]	≤ 10	–	≤ 10	≤ 10	≤ 10	≤ 10	–	≤ 10	–	≤ 10	–
CCCS(=O)(=O)Nc1ccc(F)c(C(=O)c2c[nH]c3ncc(C)cc23)c1F [Compound P-1249]	≤ 10	–	≤ 10	≤ 10	–	≤ 10	≤ 10	≤ 10	≤ 10	≤ 10	–
CCCS(=O)(=O)Nc1cccc(C(=O)c2c[nH]c3ncc(OC)cc23)c1F [Compound P-1256, Propane-1-sulfonic acid [2-fluoro-3-(5-methoxy-1H-pyrrolo[2,3-b]pyridine-3-carbonyl)-phenyl]-amide]	≤ 10	≤ 10	≤ 10	≤ 10	≤ 10	≤ 10	≤ 10	≤ 10	≤ 10	–	–
CC(=O)Nc1cccc(-c2cnc3[nH]cc(Cc4ccccc4F)c3c2)c1 [Compound P-1347]	≤ 10	≤ 10	≤ 10	≤ 10	–	≤ 10	≤ 10	≤ 10	–	–	≤ 10
COc1ccc(F)c(C(=O)c2c[nH]c3ncc(-c4ccccc4)cc23)c1F [Compound P-1387, (2,6-Difluoro-3-methoxy-phenyl)-(5-phenyl-1H-pyrrolo[2,3-b]pyridin-3-yl)-methanone]	≤ 10	–	≤ 10	≤ 10	–	≤ 10	≤ 10	≤ 10	≤ 10	≤ 10	–
c1ccc(Oc2ccc(Nc3c[nH]c4ncccc34)cc2)cc1 [Compound P-1495, (4-Phenoxy-phenyl)-(1H-pyrrolo[2,3-b]pyridin-3-yl)-amine]	≤ 10	–	≤ 10	≤ 10	≤ 10	≤ 10	–	–	–	≤ 10	–

Further lines, results first:

IC50 (Kit) [µM]	IC50 (Jnk1) [µM]	IC50 (Fak) [µM]	IC50 (Src) [µM]	IC50 (Flt1) [µM]	IC50 (B-Raf V600E) [µM]	IC50 (FGFR1) [µM]	IC50 (B-Raf) [µM]	IC50 (c-Raf-1) [µM]	IC50 (Fms) [µM]	IC50 (Jnk3) [µM]	Compound
≤ 10	≤ 10	≤ 10	≤ 10	≤ 10	≤ 10	≤ 10	≤ 10	–	–	–	O=C(Nc1cccc(Cc2c[nH]c3ncc(-c4cccnc4)cc23)c1)NC1CCCC1 [Compound P-1446, 1-Cyclopentyl-3-[3-(5-pyridin-3-yl-1H-pyrrolo[2,3-b]pyridin-3-ylmethyl)-phenyl]-urea]
≤ 10	–	≤ 10	≤ 10	–	≤ 10	≤ 10	≤ 10	≤ 10	–	–	CCCS(=O)(=O)Nc1ccc(F)c(C(=O)c2c[nH]c3ncc(-c4ccc(N(C)C)cc4)cc23)c1F [Compound P-0889, Propane-1-sulfonic acid {3-[5-(4-dimethylamino-phenyl)-1H-pyrrolo[2,3-b]pyridine-3-carbonyl]-2,4-difluoro-phenyl}-amide]
≤ 10	–	≤ 10	≤ 10	–	≤ 10	≤ 10	–	≤ 10	–	–	CCCS(=O)(=O)Nc1ccc(F)c(Cc2c[nH]c3ncc(Cl)cc23)c1F [Compound P-1396]
≤ 10	–	≤ 10	≤ 10	–	≤ 10	≤ 10	≤ 10	≤ 10	≤ 10	–	O=C(Nc1ccc(F)c(C(O)c2c[nH]c3ncc(Br)cc23)c1F)OCc1ccccc1 (stereo not shown) [Compound P-1451]
≤ 10	≤ 10	≤ 10	≤ 10	≤ 10	≤ 10	≤ 10	≤ 10	≤ 10	≤ 10	–	CCCS(=O)(=O)Nc1ccc(F)c(C(=O)c2c[nH]c3ncc(OC)cc23)c1 [Compound P-1433]
≤ 10	≤ 10	≤ 10	≤ 10	–	≤ 10	≤ 10	≤ 10	–	–	≤ 10	NC(=O)c1ccc(-c2cnc3[nH]cc(Cc4ccccc4F)c3c2)cc1 [Compound P-1348]
≤ 10	–	≤ 10	≤ 10	–	≤ 10	≤ 10	≤ 10	≤ 10	≤ 10	–	CCCS(=O)(=O)Nc1ccc(F)c(Cc2c[nH]c3ncc(-c4cccnc4)cc23)c1F [Compound P-1397]
≤ 10	–	≤ 10	≤ 10	≤ 10	≤ 10	≤ 10	≤ 10	≤ 10	≤ 10	–	CCCCS(=O)(=O)Nc1cccc(C(=O)c2c[nH]c3ncc(Cl)cc23)c1F [Compound P-1250, Butane-1-sulfonic acid [3-(5-chloro-1H-pyrrolo[2,3-b]pyridine-3-carbonyl)-2-fluoro-phenyl]-amide]
≤ 10	–	≤ 10	≤ 10	≤ 10	≤ 10	≤ 10	–	≤ 10	≤ 10	–	CCCS(=O)(=O)Nc1ccc(F)c(C(=O)c2c[nH]c3ncc(Br)cc23)c1 [Compound P-1403, Propane-1-sulfonic acid [3-(5-bromo-1H-pyrrolo[2,3-b]pyridine-3-carbonyl)-4-fluoro-phenyl]-amide]
≤ 10	–	≤ 10	≤ 10	≤ 10	≤ 10	≤ 10	≤ 10	≤ 10	≤ 10	–	O=C(c1cccc(NS(=O)(=O)c2ccccc2)c1F)c1c[nH]c2ncc(Cl)cc12 [Compound P-1255, N-[3-(5-chloro-1H-pyrrolo[2,3-b]pyridine-3-carbonyl)-2-fluoro-phenyl]benzenesulfonamide]
